US7592358B2 (Boehringer Ingelheim International GmbH, priority 2004, dated 2009)

Target: T1, hMCH-1R (Homo sapiens, UniProt Q99705)
T1 construct: expressed in transfected cells; host or cells: CHO/Galpha16 cells
Test: MCH-1 receptor binding test
Details: ^125I-MCH binding to membranes from CHO/Galpha16 cells stably transfected with human hMCH-1R
Method: Membranes from CHO/Galpha16 cells stably transfected with human hMCH-1R are resuspended using a syringe (needle 0.6×25 mm) and diluted in test buffer (50 mM HEPES, 10 mM MgCl2, 2 mM EGTA, pH 7.00; 0.1% bovine serum albumin (protease-free), 0.021% bacitracin, 1 μg/mL aprotinin, 1 μg/mL leupeptin and 1 μM phosphoramidone) to a concentration of 5 to 15 μg/mL. […] After the incubation the reaction is filtered using a cell harvester through 0.5% PEI treated fiberglass filters (GF/B, Unifilter Packard). The membrane-bound radioactivity retained on the filter is then determined after the addition of scintillator substance (Packard Microscint 20) in a measuring device (TopCount of Packard). […] The analysis of the concentration binding curve is carried out on the assumption of one receptor binding site.

T1 sequence (Q99705 whole entry): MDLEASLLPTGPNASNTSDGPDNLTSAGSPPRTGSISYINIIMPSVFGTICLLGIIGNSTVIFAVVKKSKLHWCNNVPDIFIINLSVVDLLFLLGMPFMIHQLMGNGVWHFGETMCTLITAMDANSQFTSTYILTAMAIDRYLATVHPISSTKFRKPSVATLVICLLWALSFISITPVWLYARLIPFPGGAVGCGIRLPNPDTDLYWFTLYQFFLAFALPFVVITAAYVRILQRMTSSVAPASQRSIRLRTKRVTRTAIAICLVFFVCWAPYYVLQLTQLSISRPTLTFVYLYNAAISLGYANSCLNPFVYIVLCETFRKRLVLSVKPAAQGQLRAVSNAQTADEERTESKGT

Structure (SMILES)	IC50 [µM]
Cc1cc(C#Cc2ccc(-c3ccc(Cl)cc3)cn2)ccc1OCCN(C1CCCCC1)C1CCCC1 [Example 1.9, (2-{4-[5-(4-chlorophenyl)pyridin-2-ylethynyl]-2-methylphenoxy}ethyl)cyclohexylcyclopentylamine]	0.0062
CC1(O)CCN(Cc2cc3cc(C#Cc4ccc(-c5ccc(Cl)cc5)cn4)ccc3s2)CC1 [Example 22.3, 1-{5-[5-(4-chlorophenyl)pyridin-2-ylethynyl]benzo[b]thiophen-2-ylmethyl}-4-methylpiperidin-4-ol]	0.031
